Data set [1] concerns StxB. It counts as cell-based. The note with it: 20 μM, 30 min, 37° C.
Data set [2] relates to StxB. The format is cell-based, human.
For data set [3], the system named is Stx1 and Stx2.
In data set [4] the test system is HeLa-cells.
The subject of data set [5] is StxB. It counts as cell-based.
Data set [6] has as its system vesicular stomatitis virus G protein (VSVG). It counts as cell-based, human.
Data set [7] relates to CTxB. The format is cell-based. As to conditions: 20 μM.
For data set [8], the system named is 125I-EGF. The format is cell-based, human.
Data set [9] has as its system transferrin (Tf). It counts as cell-based. As to conditions: 20 μM, 30 min, 37° C.
In data set [10] the test system is StxB. It counts as cell-based. As to conditions: 20 μM, 45 min at 37° C.
Data set [11] deals with StxB. It counts as cell-based, human. The source holds these as a separate data set.
The subject of data set [12] is THP1-cells.
In data set [13] the test system is CI-MPR. It counts as cell-based, human.
In data set [14] the test system is TGN46. It counts as cell-based, human.

Each structure is given as a SMILES string. “Also recorded” adds a separate entry of the source.

Regarding `CCC(=O)N1CC(=O)Nc2ccc(Br)cc2C1c1ccccc1` (stereo not drawn) [Compound 193, 7-bromo-5-phenyl-4-propionyl-4,5-dihydro-1H-benzo[e][1,4]diazepin-2(3H)-one], in data set [1], the “endocytosis of StxB” value is recorded as “not altered”. Also, the “retrograde transport of StxB to the TGN” value in data set [2] is listed as “stark reduction”. Further, the “inhibition of Stx cytotoxicity” value in data set [3] was 100 fold. The “effect on protein biosynthesis” value in [4] is recorded as “only minor”. Moreover, in data set [5], the “reduction of retrograde transport of STxB to the TGN” value is recorded as 90% and the “reduction of transport of StxB to the TGN, 4 h after internalization” value was determined as 50%. Moreover, in data set [6], the “anterograde transport of GFP-VSVGts045” value is “not significantly reduced”. The “cellular localisation of CtxB” value in [7] was “accumulation”. In addition, the “effect on lysosomal degradation of 125I-EGF” value in data set [8] is “no effect”. Further, in [9], the “endocytosis of transferrin (Tf)” value was “not altered”. The “cellular localisation of STxB” value in data set [10] is given as “accumulation”. For the same compound, the “amount of bound StxB on cells” value in data set [11] is recorded as “not reduced”. Besides, the apparent side effects entry in data set [12] was “did not cause any apparent side effects”. For the same compound, in [13], the “steady-state localization of CI-MPR” value was “similar”. For the same compound, in data set [14], the “steady-state localization and transport of TGN46” value was “similar; also recorded: not been observed a distinct inhibition; also recorded: did not observe a pronounced effect; also recorded: do not impact distinctly”.
